Results taken from patent US20100267561A1, “HERBICIDAL PYRIDAZINONE DERIVATIVES” (priority 2007, published 2010).

What was measured:
Format in all cases: in vivo
[1] = test system: barnyardgrass (Echinochloa crus-galli); experiment: Test A pre-/postemergence plant response
From the text: (§1) Seeds of species selected from barnyardgrass (Echinochloa crus-galli), large crabgrass (Digitaria sanguinalis), giant foxtail (Setaria faberi), blackgrass (Alopecurus myosuroides), canarygrass (Phalaris minor), morningglory (Ipomoea coccinea), pigweed (Amaranthus retroflexus), velvetleaf (Abutilon theophrasti), wheat (Triticum aestivum), and corn (Zea mays) were planted into a blend of loam soil and sand and treated preemergence with a directed soil spray using test chemicals formulated in a non-phytotoxic solvent mixture which included a surfactant. At the same time these species were also treated with postemergence applications of test chemicals formulated in the same manner.
(§2) Plants ranged in height from 2 to 10 cm and were in the one- to two-leaf stage for the postemergence treatment. Treated plants and untreated controls were maintained in a greenhouse for approximately 10 days, after which time all treated plants were compared to untreated controls and visually evaluated for injury. Plant response ratings, summarized in Table A, are based on a 0 to 100 scale where 0 is no effect and 100 is complete control. A dash (-) response means no test results.

[2] = test system: large crabgrass (Digitaria sanguinalis); experiment: Test A pre-/postemergence plant response
From the text: as §1, §2

[3] = test system: pigweed (Amaranthus retroflexus); experiment: Test A pre-/postemergence plant response
From the text: as §1, §2

[4] = test system: giant foxtail (Setaria faberi); experiment: Test A pre-/postemergence plant response
From the text: as §1, §2

[5] = test system: velvetleaf (Abutilon theophrasti); experiment: Test A pre-/postemergence plant response
From the text: as §1, §2

[6] = test system: morningglory (Ipomoea coccinea); experiment: Test A pre-/postemergence plant response
From the text: as §1, §2

[7] = test system: wheat (Triticum aestivum); experiment: Test A pre-/postemergence plant response
From the text: as §1, §2

corn (Zea mays) = experiment: Test A pre-/postemergence plant response
From the text: as §1, §2

[8] = test system: barnyardgrass (Echinochloa crus-galli); experiment: Test B flooded paddy test plant response
Summary of the method: (§3)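 Compounds were added directly to paddy water over 2-leaf-stage plants in pots flooded 3 cm above soil, water depth maintained. Visual injury scored against controls after 13 to 15 days in greenhouse, 0 (none) to 100 (complete control); dash indicates no result.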

[9] = test system: umbrella sedge (Cyperus difformis); experiment: Test B flooded paddy test plant response
Summary of the method: as §3

[10] = test system: ducksalad (Heteranthera limosa); experiment: Test B flooded paddy test plant response
Summary of the method: as §3

rice (Oryza sativa) = experiment: Test B flooded paddy test plant response
Summary of the method: as §3

[11] = Postemergence, 125 g ai/ha, 0 to 100 scale, 0 no effect, 100 complete control
[12] = Postemergence, 500 g ai/ha, 0 to 100 scale, 0 no effect, 100 complete control
[13] = Preemergence, 125 g ai/ha, 0 to 100 scale (0 no effect, 100 complete control)
[14] = Preemergence, 500 g ai/ha, 0 to 100 scale (0 no effect, 100 complete control)
[15] = Flood (flooded paddy test), 62 g ai/ha, scale 0 to 100, 0 no effect, 100 complete control
[16] = Flood (flooded paddy test), 125 g ai/ha, scale 0 to 100, 0 no effect, 100 complete control
[17] = Flood (flooded paddy test), 250 g ai/ha, scale 0 to 100, 0 no effect, 100 complete control
[18] = Flood, 31 g ai/ha, scale 0 to 100
[19] = Postemergence, 31 g ai/ha, 0 to 100 scale, 0 no effect, 100 complete control
[20] = Preemergence, 31 g ai/ha, 0 to 100 scale, 0 is no effect, 100 is complete control

Cc1cc(-c2ccc(C(F)(F)F)cc2)nn1-c1c(O)c(C(F)(F)F)nn(C)c1=O [Compound 42]
10: Plant response rating, Foxtail, Giant [4, 12] | Plant response rating, Wheat [7, 12]
0: Plant response rating, Barnyardgrass [1, 11] | Plant response rating, Barnyardgrass [1, 12] | Plant response rating, Barnyardgrass [1, 13] | Plant response rating, Barnyardgrass [1, 14] | Plant response rating, Crabgrass, Large [2, 11] | Plant response rating, Crabgrass, Large [2, 12] | Plant response rating, Crabgrass, Large [2, 13] | Plant response rating, Crabgrass, Large [2, 14] | Plant response rating, Pigweed [3, 11] | Plant response rating, Pigweed [3, 12] | Plant response rating, Pigweed [3, 13] | Plant response rating, Pigweed [3, 14] | Plant response rating, Foxtail, Giant [4, 11] | Plant response rating, Foxtail, Giant [4, 13] | Plant response rating, Foxtail, Giant [4, 14] | Plant response rating, Velvetleaf [5, 11] | Plant response rating, Velvetleaf [5, 12] | Plant response rating, Velvetleaf [5, 13] | Plant response rating, Velvetleaf [5, 14] | Plant response rating, Morningglory [6, 11] | Plant response rating, Morningglory [6, 12] | Plant response rating, Morningglory [6, 13] | Plant response rating, Morningglory [6, 14] | Plant response rating, Wheat [7, 11] | Plant response rating, Wheat [7, 13] | Plant response rating, Wheat [7, 14] | Plant response rating, Corn (corn (Zea mays); [13]) | Plant response rating, Corn (corn (Zea mays); [14]) | Plant response rating, Barnyardgrass [8, 15] | Plant response rating, Barnyardgrass [8, 16] | Plant response rating, Barnyardgrass [8, 17] | Plant response rating, Barnyardgrass [8, 18] | Plant response rating, Sedge, Umbrella [9, 15] | Plant response rating, Sedge, Umbrella [9, 16] | Plant response rating, Sedge, Umbrella [9, 17] | Plant response rating, Sedge, Umbrella [9, 18] | Plant response rating, Ducksalad [10, 15] | Plant response rating, Ducksalad [10, 16] | Plant response rating, Ducksalad [10, 17] | Plant response rating, Ducksalad [10, 18] | Plant response rating, Rice (rice (Oryza sativa); [15]) | Plant response rating, Rice (rice (Oryza sativa); [16]) | Plant response rating, Rice (rice (Oryza sativa); [17]) | Plant response rating, Rice (rice (Oryza sativa); [18])
20: Plant response rating, Corn (corn (Zea mays); [11]) | Plant response rating, Corn (corn (Zea mays); [12])

Cc1cc(-c2ccc(Cl)cc2)nn1-c1c(OS(=O)(=O)C2CC2)cnn(C)c1=O [Compound 49]
40: Plant response rating, Crabgrass, Large [2, 13]
80: Plant response rating, Foxtail, Giant [4, 13]
20: Plant response rating, Crabgrass, Large [2, 11] | Plant response rating, Foxtail, Giant [4, 11]
0: Plant response rating, Barnyardgrass [1, 19] | Plant response rating, Barnyardgrass [1, 11] | Plant response rating, Barnyardgrass [1, 20] | Plant response rating, Barnyardgrass [1, 13] | Plant response rating, Crabgrass, Large [2, 19] | Plant response rating, Crabgrass, Large [2, 20] | Plant response rating, Pigweed [3, 19] | Plant response rating, Pigweed [3, 11] | Plant response rating, Pigweed [3, 20] | Plant response rating, Pigweed [3, 13] | Plant response rating, Foxtail, Giant [4, 19] | Plant response rating, Foxtail, Giant [4, 20] | Plant response rating, Velvetleaf [5, 19] | Plant response rating, Velvetleaf [5, 11] | Plant response rating, Velvetleaf [5, 20] | Plant response rating, Velvetleaf [5, 13] | Plant response rating, Morningglory [6, 19] | Plant response rating, Morningglory [6, 11] | Plant response rating, Morningglory [6, 20] | Plant response rating, Morningglory [6, 13] | Plant response rating, Wheat [7, 19] | Plant response rating, Wheat [7, 11] | Plant response rating, Wheat [7, 20] | Plant response rating, Wheat [7, 13] | Plant response rating, Corn (corn (Zea mays); [19]) | Plant response rating, Corn (corn (Zea mays); [11]) | Plant response rating, Corn (corn (Zea mays); [20]) | Plant response rating, Corn (corn (Zea mays); [13]) | Plant response rating, Barnyardgrass [8, 15] | Plant response rating, Barnyardgrass [8, 16] | Plant response rating, Barnyardgrass [8, 17] | Plant response rating, Barnyardgrass [8, 18] | Plant response rating, Sedge, Umbrella [9, 15] | Plant response rating, Sedge, Umbrella [9, 16] | Plant response rating, Sedge, Umbrella [9, 17] | Plant response rating, Sedge, Umbrella [9, 18] | Plant response rating, Ducksalad [10, 15] | Plant response rating, Ducksalad [10, 17] | Plant response rating, Ducksalad [10, 18] | Plant response rating, Rice (rice (Oryza sativa); [15]) | Plant response rating, Rice (rice (Oryza sativa); [16]) | Plant response rating, Rice (rice (Oryza sativa); [17]) | Plant response rating, Rice (rice (Oryza sativa); [18])

Cc1cc(-n2cc(Cl)cn2)ccc1-c1c(O)cnn(C)c1=O [Compound 60]
70: Plant response rating, Barnyardgrass [1, 13]
60: Plant response rating, Crabgrass, Large [2, 12]
80: Plant response rating, Crabgrass, Large [2, 14] | Plant response rating, Foxtail, Giant [4, 12] | Plant response rating, Foxtail, Giant [4, 13]
20: Plant response rating, Crabgrass, Large [2, 11] | Plant response rating, Crabgrass, Large [2, 13]
0: Plant response rating, Pigweed [3, 11] | Plant response rating, Pigweed [3, 12] | Plant response rating, Pigweed [3, 13] | Plant response rating, Pigweed [3, 14] | Plant response rating, Velvetleaf [5, 11] | Plant response rating, Velvetleaf [5, 12] | Plant response rating, Velvetleaf [5, 13] | Plant response rating, Velvetleaf [5, 14] | Plant response rating, Morningglory [6, 11] | Plant response rating, Morningglory [6, 12] | Plant response rating, Morningglory [6, 13] | Plant response rating, Morningglory [6, 14] | Plant response rating, Wheat [7, 11] | Plant response rating, Wheat [7, 13] | Plant response rating, Barnyardgrass [8, 15] | Plant response rating, Sedge, Umbrella [9, 15] | Plant response rating, Sedge, Umbrella [9, 17] | Plant response rating, Ducksalad [10, 15] | Plant response rating, Ducksalad [10, 17] | Plant response rating, Rice (rice (Oryza sativa); [15])
100: Plant response rating, Barnyardgrass [1, 14] | Plant response rating, Foxtail, Giant [4, 14]
90: Plant response rating, Barnyardgrass [1, 12] | Plant response rating, Corn (corn (Zea mays); [12]) | Plant response rating, Corn (corn (Zea mays); [14])
40: Plant response rating, Corn (corn (Zea mays); [11])
50: Plant response rating, Foxtail, Giant [4, 11] | Plant response rating, Wheat [7, 12] | Plant response rating, Wheat [7, 14] | Plant response rating, Corn (corn (Zea mays); [13])
30: Plant response rating, Barnyardgrass [1, 11] | Plant response rating, Barnyardgrass [8, 17] | Plant response rating, Rice (rice (Oryza sativa); [17])

Cc1cc(-c2ccc(Cl)cc2)nn1-c1c(OC(=O)N(C)C)cnn(C)c1=O [Compound 64]
40: Plant response rating, Crabgrass, Large [2, 11]
30: Plant response rating, Foxtail, Giant [4, 19] | Plant response rating, Corn (corn (Zea mays); [13])
10: Plant response rating, Barnyardgrass [1, 11]
0: Plant response rating, Barnyardgrass [1, 19] | Plant response rating, Barnyardgrass [1, 20] | Plant response rating, Barnyardgrass [1, 13] | Plant response rating, Crabgrass, Large [2, 19] | Plant response rating, Crabgrass, Large [2, 20] | Plant response rating, Pigweed [3, 19] | Plant response rating, Pigweed [3, 11] | Plant response rating, Pigweed [3, 20] | Plant response rating, Pigweed [3, 13] | Plant response rating, Foxtail, Giant [4, 20] | Plant response rating, Velvetleaf [5, 19] | Plant response rating, Velvetleaf [5, 11] | Plant response rating, Velvetleaf [5, 20] | Plant response rating, Velvetleaf [5, 13] | Plant response rating, Morningglory [6, 19] | Plant response rating, Morningglory [6, 11] | Plant response rating, Morningglory [6, 20] | Plant response rating, Morningglory [6, 13] | Plant response rating, Wheat [7, 19] | Plant response rating, Wheat [7, 11] | Plant response rating, Wheat [7, 20] | Plant response rating, Wheat [7, 13] | Plant response rating, Corn (corn (Zea mays); [19]) | Plant response rating, Corn (corn (Zea mays); [20]) | Plant response rating, Barnyardgrass [8, 15] | Plant response rating, Barnyardgrass [8, 17] | Plant response rating, Sedge, Umbrella [9, 15] | Plant response rating, Sedge, Umbrella [9, 17] | Plant response rating, Ducksalad [10, 15] | Plant response rating, Ducksalad [10, 17] | Plant response rating, Rice (rice (Oryza sativa); [15]) | Plant response rating, Rice (rice (Oryza sativa); [17])
80: Plant response rating, Foxtail, Giant [4, 11]
60: Plant response rating, Corn (corn (Zea mays); [11])
50: Plant response rating, Crabgrass, Large [2, 13] | Plant response rating, Foxtail, Giant [4, 13]
